The text below walks through data of paper PMC4513954 (Journal of medicinal chemistry, 2015).

Like-named read-outs stand apart in the source and are kept apart here. Where only a bound is given, the exact number is not on record here.

The nature of data set [1]: Toxicity against mammalian cells. The format is cell-based.
The next data set has as its system MRSA strain (S. aureus). The settings on record: cited from earlier work.
The next data set deals with S. aureus. The settings on record: S. aureus in vitro; cited from earlier work.
In data set [2] the test system is undecaprenyl diphosphate synthase (UPPS). The note with it: read-out: UPPS IC50; cited from earlier work.
For a further data set, the system named is Yersinia pestis. The note with it: cited from earlier work.
Another data set deals with Bacillus anthracis. The note with it: cited from earlier work.
A further data set deals with E. coli (K12). In words: E. coli cell growth inhibition. The settings on record: Escherichia coli, read-out: E. coli EC50, cell growth inhibition, E. coli K12.
For data set [3], the target named is undecaprenyl diphosphate synthase (UPPS). The data set can be described thus: UPPS inhibition. The settings on record: read-out: UPPS IC50; both UPPS enzymes, approximate. The format is biochemical.

For orientation: EC50 means the concentration at which the effect is half-maximal. A word on the IC50: it is the concentration that gives 50% inhibition. In data set [1], `O=C(Nc1cccc(C2=NCCN2)c1)c1ccc(-c2ccc(C(=O)Nc3cccc(C4=NCCN4)c3)cc2)cc1` [Compound 1, N4,N4'-bis(3-(4,5-dihydro-1H-imidazol-2-yl)phenyl)-[1,1'-biphenyl]-4,4'-bicarboxamide] had an EC50 greater than 100000 nM. Besides, the adverse side-effects entry in the data set with MRSA strain (S. aureus) (S. aureus mouse model of infection) is listed as “no adverse side-effects”. Also, the mice survived in the data set with MRSA strain (S. aureus) (i.p. infection model with a MRSA strain) was 20/20. Besides, the MIC in the data set on S. aureus is given as ~ 250 ng/mL. In data set [2], the IC50 is roughly 100 nM.
Turning to `c1cc2cc(-c3ccc(-c4cc5ccc(C6=NCCN6)cc5[nH]4)cc3)[nH]c2cc1C1=NCCN1` [Compound 7, 1,4-bis(6-(4,5-dihydro-1H-imidazol-2-yl)-1H-indol-2-yl)benzene], the “efficacy in mice model of infection” value in the data set on Yersinia pestis and with Bacillus anthracis was “effective” each time.
Turning to `C(=C\c1cc2ccc(C3=NCCN3)cc2[nH]1)/c1cc2ccc(C3=NCCN3)cc2[nH]1.Cl` [Compound 8], the “efficacy in mice model of infection” value in the data set with Yersinia pestis and with Bacillus anthracis was “effective” throughout.
For `O=C(Nc1cccc(C2=NCCCN2)c1)c1ccc(-c2ccc(C(=O)Nc3cccc(C4=NCCCN4)c3)cc2)cc1` [Compound 10, N4,N4'-bis(3-(1,4,5,6-tetrahydropyrimidin-2-yl)phenyl)biphenyl-4,4'-dicarboxamide], the 50% effective concentration (EC50) in the data set on E. coli (K12) was less than 1000 nM. Besides, the IC50 in data set [3] is roughly 5000 nM.
